Data as given in patent US20110195987A1, “TREATMENT WITH CHOLINERGIC AGONISTS” (priority 2009, published 2011).

Columns and labels:
Assay type in all cases: in vivo, human
[1] = Case studies: vaginal dryness / vaginal secretions in female patients
Description: (§1) A second patient two, suffering from painful intercourse and vaginal dryness and discomfort, also used oral pilocarpine at a dose of 2.5-5 mg BID. […] A trial of intra-vaginal administration of pilocarpine, starting at a dose of 1/4 of a 5 mg tablet daily at night was tried. […] The patient had previously tried HRT without much improvement. The improvement in vaginal symptoms was stunning.
(§2) A third patient has had problems with vaginal dryness and painful intercourse for several years. Oral hormone replacement therapy consisting of both estradiol and PROMETRIUM (progesterone), had provided no relief for their vaginal symptoms. They were started on oral Evoxac, 30 mg daily. After a week, they administered 30 mg cevimeline mixed with a small amount of yogurt directly in the vagina nightly. They have reported improvement in both vaginal dryness and pain on intercourse and continues on the treatment.
They were started on oral pilocarpine, 5 mg twice a day. Within a few days, they noticed marked improvement in their symptoms, i.e., a reduction in vaginal dryness and symptoms associated with urinary tract infections. […]
(§3) Their symptoms consisted of vaginal and pelvic pain as well as signs of urinary tract infections with trace positive cultures. Prior attempts to treat urinary tract infections with antibiotics often failed. They began a regimen of oral pilocarpine, 5 mg twice a day, for a week followed by 5 mg pilocarpine administered directly to the vagina nightly for a week. Subsequently, the amount of pilocarpine was increased to 10 mg directly administered to the vagina nightly. […] Additionally, they reported a reduction in pelvic pain and vaginal dryness a few days after commencing intravaginal administration of 10 mg pilocarpine.

[2] = Case studies: symptoms of interstitial cystitis (IC) in female patients
Description: (§4) In the case of a patient who has been diagnosed with IC for more than 8 years, no prior treatment has helped the episodes of pain, urinary frequency, and systemic symptoms mentioned above. […] However, the onset of breast cancer and its treatment have precluded the use of Hormone Replacement Therapy (HRT). Because of vaginal dryness, a trial of Evoxac (cevimeline HCl) capsules, 30 mg daily, by oral administration was tried. […] This lasted for about 2 months. The Evoxac was started on or about Apr. 5, 2009. […] Metoprolol at a dose of 12.5-25 mg/day was started to slow the heart rate. […] The Evoxac was restarted at a dose of 15 mg daily. A trial of intra-vaginal medication at a dose of 30 mg per vagina (powder was taken out of the capsule and instilled using a gel cap) was also tried.
as §3

[3] = Case studies: side effects of oral versus intra-vaginal administration
Description: as §4, §1
(§5) […] They began and tolerated oral pilocarpine, 5 mg twice a day.

[4] = Case studies: painful intercourse in female patients
Description: as §1, §2
(§6) They began a week long regimen of oral pilocarpine, 5 mg twice a day, followed by 10 mg placed directly in the vagina nightly. They reported improvement in symptoms associated with urinary tract infections, vaginal dryness and painful intercourse. […] Formulation of the pilocarpine in a manner suitable for intravaginal administration will improve delivery of the pilocarpine and the efficacy of treatment.

[5] = Case studies: urinary tract infections in female patients
Description: […] […] They were started on oral pilocarpine, 5 mg twice a day. Within a few days, they noticed marked improvement in their symptoms, i.e., a reduction in vaginal dryness and symptoms associated with urinary tract infections.
as §5, §6

[6] = Case study: vaginal yeast infections in patient; conditions: Case Study 5, patient one; oral 5 mg twice a day, approximately 8 months
Description: as §5

[7] = Case Study 2, patient two, intra-vaginal up to 7.5 mg daily
[8] = Case Study 2, patient two, oral 2.5-5 mg BID
[9] = Case Study 4, patient five, oral 5 mg twice a day, within a few days
[10] = Case Study 5, patient one, oral 5 mg twice a day, approximately 8 months
[11] = Case Study 6, patient six, oral 5 mg twice a day for a week, then 10 mg in the vagina nightly
[12] = Case Study 7, patient four, 10 mg intravaginal nightly, a few days after commencing
[13] = Case Study 3, patient seven, oral 30 mg daily for a week, then 30 mg in yogurt directly in the vagina nightly
[14] = Case Study 1, patient three, 30 mg daily, oral

SMILES: CC[C@@H]1C(=O)OC[C@@H]1Cc1cncn1C [pilocarpine, (3S,4R)-3-ethyl-4-((1-methyl-1H-imidazol-5-yl)methyl)dihydrofuran-2(3H)-one]
- vaginal secretions ([1]; Case Study 2, patient two, intra-vaginal 2.5 mg daily): partial response
- vaginal secretions ([1]; Case Study 2, patient two, intra-vaginal 5 mg daily): improved greatly
- vaginal secretions ([1]; Case Study 2, patient two, intra-vaginal 7.5 mg daily): improved greatly
- improvement in vaginal symptoms [1, 7]: stunning
- vaginal dryness [1, 8]: improved
- vaginal dryness [1, 9]: reduction
- results of intermittent dosing ([1]; Case Study 4, patient five, oral, taken intermittently): satisfactory results
- vaginal dryness [1, 10]: no more vaginal dryness
- vaginal dryness [1, 11]: improvement
- vaginal secretions ([1]; Case Study 7, patient four, 5 mg directly to the vagina nightly, after the first week): an increase in vaginal secretions
- vaginal secretions ([1]; Case Study 7, patient four, 10 mg directly to the vagina nightly): increased more significantly
- vaginal dryness [1, 12]: reduction
- pelvic pain [2, 12]: reduction
- systemic symptoms ([3]; Case Study 2, patient two, intra-vaginal): no systemic symptoms
- side effects [3, 8]: excess sweating and nausea
- tolerability ([3]; Case Study 5, patient one, oral 5 mg twice a day): tolerated
- intercourse [4, 7]: could enjoy intercourse for the first time in many months
- painful intercourse [4, 11]: improvement
- symptoms associated with urinary tract infections [5, 9]: reduction
- urinary tract infections [5, 10]: far fewer
- symptoms associated with urinary tract infections [5, 11]: improvement
- vaginal yeast infections [6]: far fewer

SMILES: CC1OC2(CS1)CN1CCC2CC1 (stereo not drawn) [Evoxac, 2-methyspiro (1,3-oxathiolane-5,3) quinuclidine]
- vaginal dryness ([1]; Case Study 1, patient three, capsules 30 mg daily, oral): improvement in vaginal dryness
- vaginal dryness [1, 13]: improvement
- symptoms of IC ([2]; Case Study 1, patient three, 15 mg daily oral, compared with prior treatment incl. Elmiron 100 mg TID four months): improved the symptoms of IC better than any prior treatment
- duration of remission of IC symptoms [2, 14]: about 2 months
- symptoms of IC [2, 14]: remitted
- symptoms of IC ([2]; Case Study 1, patient three, 30 mg intra-vaginal (powder in gel cap), compared with prior treatment incl. Elmiron 100 mg TID four months): improved the symptoms of IC better than any prior treatment
- symptoms of IC after discontinuing the medication ([2]; Case Study 1, patient three, stopped for a few weeks): symptoms of IC return within a week
- side effects ([3]; Case Study 1, patient three, 30 mg intra-vaginal): completely eliminated side-effects
- side effects ([3]; Case Study 1, patient three, oral administration, 30 mg daily): nausea and rapid heart rate
- pain on intercourse [4, 13]: improvement

SMILES: CC(=O)[C@H]1CC[C@H]2[C@@H]3CCC4=CC(=O)CC[C@]4(C)[C@H]3CC[C@]12C [PROMETRIUM, progesterone]
- vaginal symptoms (vaginal dryness and painful intercourse) ([1]; Case Study 3, patient seven, oral hormone replacement therapy, estradiol and PROMETRIUM together): no relief
